Reference: paper PMC6832265 (Molecules, 2019)

Target: T1, Tdp1 (Homo sapiens, UniProt Q9NUW8)
T1 construct: made in house; host or cells: Escherichia coli
Assay: Real-time detection of Tdp1 activity (5'-FAM/3'-BHQ1 oligonucleotide biosensor)
Format: biochemical
Conditions: 1.5 nM Tdp1, 50 nM oligonucleotide substrate, 26 °C
From the text: We first studied the inhibition potency of our compounds to Tdp1 by using a real-time oligonucleotide biosensor assay that we have previously developed. The assay was based on the ability of Tdp1 to remove the fluorescence quencher from the 3’-end of DNA. The substrate is a 16-mer single-stranded oligonucleotide containing both a 5’-FAM fluorophore and a 3’-BHQ1 quencher.
A fluorophore quencher-coupled DNA-biosensor for real-time measurement of Tdp1 cleavage activity was recently designed in our laboratory. The biosensor is a 16-mer single-stranded oligonucleotide containing both a 5’-FAM fluorophore donor and a quenching 3’-BHQ1 moiety.
Recombinant protein Tdp1 was expressed in EsCherichia coli (pET 16B plasmid containing Tdp1 cDNA provided by Dr. K.W. Caldecott, University of Sussex, United Kingdom) and isolated as described. The reaction mixture in a final volume 200 μL contained Tdp1 reaction buffer (50 mM Tris-HCl, 50 mM NaCl, 7 mM β-mercaptoethanol), 50 nM oligonucleotide substrate, and varied concentrations of potential inhibitor. Purified Tdp1 was added in a final concentration of 1.5 nM.
The reaction mixtures were incubated at a constant temperature of 26 °C in a POLARstar OPTIMA fluorimeter, BMG LABTECH, GmbH, to measure fluorescence intensity every minute (Ex485/Em520 nm). Tdp1 inhibition was calculated by comparing the rate of increase in fluorescence of the biosensor in the presence of the compound to that of DMSO (1.5%) control wells. The measurements were carried out in at least two independent experiments. IC50 values were determined using a six-point concentration response curve. The data were imported into the MARS Data Analysis 2.0 program (BMG LABTECH) and the slope during the linear phase (data from 0 to 7 min) was calculated.

T1 sequence (Q9NUW8 whole entry): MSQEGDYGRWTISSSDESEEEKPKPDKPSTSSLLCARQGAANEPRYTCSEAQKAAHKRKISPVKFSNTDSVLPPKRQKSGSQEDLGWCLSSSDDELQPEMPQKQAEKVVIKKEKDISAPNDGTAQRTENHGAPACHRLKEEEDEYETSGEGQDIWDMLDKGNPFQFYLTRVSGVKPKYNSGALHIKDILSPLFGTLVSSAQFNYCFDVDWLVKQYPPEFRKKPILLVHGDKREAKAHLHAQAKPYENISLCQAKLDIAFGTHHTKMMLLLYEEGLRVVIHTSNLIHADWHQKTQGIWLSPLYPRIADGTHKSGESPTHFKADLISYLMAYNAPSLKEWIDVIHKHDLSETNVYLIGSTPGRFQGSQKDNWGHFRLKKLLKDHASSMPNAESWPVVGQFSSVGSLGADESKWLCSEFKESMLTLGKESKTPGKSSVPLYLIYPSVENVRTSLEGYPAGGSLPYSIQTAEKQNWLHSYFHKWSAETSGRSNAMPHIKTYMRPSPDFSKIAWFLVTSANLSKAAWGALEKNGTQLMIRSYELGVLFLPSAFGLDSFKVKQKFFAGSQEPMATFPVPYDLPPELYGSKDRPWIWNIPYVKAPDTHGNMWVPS

Work on `CC(=O)C1=C(O)C=C2Oc3c(-c4csc(N/N=C/c5cccnc5)n4)c(O)c(C)c(O)c3[C@@]2(C)C1=O` [(+)-16c, 3-[(1E)-(2-{4-[(1R)-12-Acetyl-3,5,11-trihydroxy-1,4-dimethyl-13-oxo-8-oxatricyclo[7.4.0.0^2,7]trideca-2(7),3,5,9,11-pentaen-6-yl]-1,3-thiazol-2-yl}hydrazin-1-ylidene)methyl]pyridin-1-ium bromide] yielded an IC50 of 353 ± 17 nM.

For `CC(=O)C1=C(O)C=C2Oc3c(-c4csc(N/N=C/c5ccc(C)s5)n4)c(O)c(C)c(O)c3[C@@]2(C)C1=O` [(+)-16e, (2R)-4-Acetyl-5,11,13-trihydroxy-2,12-dimethyl-10-{2-[(E)-2-[(5-methylthiophen-2-yl)methylidene]hydrazin-1-yl]-1,3-thiazol-4-yl}-8-oxatricyclo[7.4.0.0^2,7]trideca-1(9),4,6,10,12-pentaen-3-one], the IC50 was 91 ± 7 nM.

With `CC(=O)C1=C(O)C=C2Oc3c(-c4csc(N/N=C/c5cccs5)n4)c(O)c(C)c(O)c3[C@@]2(C)C1=O` [(+)-16g, (2R)-4-Acetyl-5,11,13-trihydroxy-2,12-dimethyl-10-{2-[(E)-2-[(thiophen-2-yl)methylidene] hydrazin-1-yl]-1,3-thiazol-4-yl}-8-oxatricyclo[7.4.0.0^2,7]trideca-1(9),4,6,10,12-pentaen-3-one] the IC50 was 52 ± 18 nM.

In the case of `CC(=O)C1=C(O)C=C2Oc3c(-c4csc(N/N=C/c5cc(Br)cs5)n4)c(O)c(C)c(O)c3[C@@]2(C)C1=O` [(+)-16h, (2R)-4-Acetyl-5,11,13-trihydroxy-2,12-dimethyl-10-{2-[(E)-2-[(4-bromothiophen-2-yl)methylidene]hydrazin-1-yl]-1,3-thiazol-4-yl}-8-oxatricyclo[7.4.0.0^2,7]trideca-1(9),4,6,10,12-pentaen-3-one], the IC50 is reported as 70 ± 18 nM.

In the case of `CC(=O)C1=C(O)C=C2Oc3c(-c4csc(N/N=C/c5sccc5C)n4)c(O)c(C)c(O)c3[C@@]2(C)C1=O` [(+)-16i, (2R)-4-Acetyl-5,11,13-trihydroxy-2,12-dimethyl-10-{2-[(E)-2-[(3-methylthiophen-2-yl)methylidene]hydrazin-1-yl]-1,3-thiazol-4-yl}-8-oxatricyclo[7.4.0.0^2,7]trideca-1(9),4,6,10,12-pentaen-3-one], the IC50 is reported as 72 ± 3 nM.

With `CC(=O)C1=C(O)C=C2Oc3c(-c4csc(N/N=C/c5ccoc5)n4)c(O)c(C)c(O)c3[C@@]2(C)C1=O` [(+)-16l, (2R)-4-Acetyl-5,11,13-trihydroxy-2,12-dimethyl-10-{2-[(E)-2-[(furan-3-yl)methylidene] hydrazin-1-yl]-1,3-thiazol-4-yl}-8-oxatricyclo[7.4.0.0^2,7]trideca-1(9),4,6,10,12-pentaen-3-one] the IC50 was 77 ± 6 nM.

Work on `CC(=O)C1=C(O)C=C2Oc3c(-c4csc(N/N=C/c5ccc[nH]5)n4)c(O)c(C)c(O)c3[C@@]2(C)C1=O` [(+)-16m, (2R)-4-Acetyl-5,11,13-trihydroxy-2,12-dimethyl-10-{2-[(E)-2-[(1H-pyrrol-2-yl)methylidene] hydrazin-1-yl]-1,3-thiazol-4-yl}-8-oxatricyclo[7.4.0.0^2,7]trideca-1(9),4,6,10,12-pentaen-3-one] yielded an IC50 of 188 ± 3 nM.

`CC(=O)C1=C(O)C=C2Oc3c(-c4csc(N/N=C/c5ccncc5)n4)c(O)c(C)c(O)c3[C@]2(C)C1=O` [(−)-16a, 4-[(1E)-(2-{4-[(1S)-12-Acetyl-3,5,11-trihydroxy-1,4-dimethyl-13-oxo-8-oxatricyclo[7.4.0.0^2,7]trideca-2(7),3,5,9,11-pentaen-6-yl]-1,3-thiazol-2-yl}hydrazin-1-ylidene)methyl]pyridin-1-ium bromide] showed an IC50 of 139 ± 38 nM.

Compound `CC(=O)C1=C(O)C=C2Oc3c(-c4csc(N/N=C/c5ccccn5)n4)c(O)c(C)c(O)c3[C@]2(C)C1=O` [(−)-16b, 2-[(1E)-(2-{4-[(1S)-12-Acetyl-3,5,11-trihydroxy-1,4-dimethyl-13-oxo-8-oxatricyclo [7.4.0.0^2,7]trideca-2(7),3,5,9,11-pentaen-6-yl]-1,3-thiazol-2-yl}hydrazin-1-ylidene)methyl]pyridin-1-ium bromide] has an IC50 of 1480 ± 265 nM.

With `CC(=O)C1=C(O)C=C2Oc3c(-c4csc(N/N=C/c5ccc([N+](=O)[O-])s5)n4)c(O)c(C)c(O)c3[C@]2(C)C1=O` [(−)-16d, (2S)-4-Acetyl-5,11,13-trihydroxy-2,12-dimethyl-10-{2-[(E)-2-[(5-nitrothiophen-2-yl)methylidene]hydrazin-1-yl]-1,3-thiazol-4-yl}-8-oxatricyclo[7.4.0.0^2,7]trideca-1(9),4,6,10,12-pentaen-3-one] the IC50 was 142 ± 4 nM.

`CC(=O)C1=C(O)C=C2Oc3c(-c4csc(N/N=C/c5ccc(C)s5)n4)c(O)c(C)c(O)c3[C@]2(C)C1=O` [(−)-16e, (2S)-4-Acetyl-5,11,13-trihydroxy-2,12-dimethyl-10-{2-[(E)-2-[(5-methylthiophen-2-yl)methylidene]hydrazin-1-yl]-1,3-thiazol-4-yl}-8-oxatricyclo[7.4.0.0^2,7]trideca-1(9),4,6,10,12-pentaen-3-one] showed an IC50 of 54 ± 25 nM.

Work on `CC(=O)C1=C(O)C=C2Oc3c(-c4csc(N/N=C/c5sccc5C)n4)c(O)c(C)c(O)c3[C@]2(C)C1=O` [(−)-16i, (2S)-4-Acetyl-5,11,13-trihydroxy-2,12-dimethyl-10-{2-[(E)-2-[(3-methylthiophen-2-yl)methylidene]hydrazin-1-yl]-1,3-thiazol-4-yl}-8-oxatricyclo[7.4.0.0^2,7]trideca-1(9),4,6,10,12-pentaen-3-one] yielded an IC50 of 121 ± 25 nM.

For `CC(=O)C1=C(O)C=C2Oc3c(-c4csc(N/N=C/c5cccn5C)n4)c(O)c(C)c(O)c3[C@]2(C)C1=O` [(−)-16n, (2S)-4-Acetyl-5,11,13-trihydroxy-2,12-dimethyl-10-{2-[(E)-2-[(1-methyl-pyrrol-2-yl)methylidene]hydrazin-1-yl]-1,3-thiazol-4-yl}-8-oxatricyclo[7.4.0.0^2,7]trideca-1(9),4,6,10,12-pentaen-3-one], the IC50 was 29 ± 9 nM.

Compound `CC(=O)C1=C(O)C=C2Oc3c(-c4csc(N/N=C/c5c[nH]c6ccccc56)n4)c(O)c(C)c(O)c3[C@]2(C)C1=O` [(−)-16p, (2S)-4-Acetyl-5,11,13-trihydroxy-2,12-dimethyl-10-{2-[(E)-2-[(1H-indole-3-yl)methylidene] hydrazin-1-yl]-1,3-thiazol-4-yl}-8-oxatricyclo[7.4.0.0^2,7]trideca-1(9),4,6,10,12-pentaen-3-one] has an IC50 of 57 ± 1 nM.

Compound `CC(=O)C1=C(O)C=C2Oc3c(-c4csc(N/N=C/c5ccc(-c6cccc(Cl)c6)o5)n4)c(O)c(C)c(O)c3[C@]2(C)C1=O` [(−)-16r, (2S)-4-Acetyl-10-{2-[(E)-2-{[5-(3-chlorophenyl)furan-2-yl]methylidene}hydrazin-1-yl]-1,3-thiazol-4-yl}-5,11,13-trihydroxy-2,12-dimethyl-8-oxatricyclo[7.4.0.0^2,7]trideca-1(9),4,6,10,12-pentaen-3-one] has an IC50 of 53 ± 3 nM.

With `COc1ccc(/C=N/Nc2nc(-c3c(O)c(C)c(O)c4c3OC3=CC(O)=C(C(C)=O)C(=O)[C@]34C)cs2)cc1COc1ccc(F)cc1` [(−)-17a, (2S)-4-Acetyl-10-{2-[(E)-2-({3-[(4-fluorophenoxy)methyl]-4-methoxyphenyl}methylidene)hydrazin-1-yl]-1,3-thiazol-4-yl}-5,11,13-trihydroxy-2,12-dimethyl-8-oxatricyclo[7.4.0.0^2,7]trideca-1(9),4,6,10,12-pentaen-3-one] the IC50 was 54 ± 3 nM.
